Reference: patent US10093627B2, “Tetrahydroquinoline derivatives and their use as Epac inhibitors” (Institut National de la Sante et de la Recherche Medicale …, priority 2012, dated 2018)
pEC50, pIC50: −log10 of the molar value.

Experiments:
Epac2(B) = molecular target: T1, Epac2(B) (Homo sapiens, UniProt Q8WZA2); test: In vitro GEF activity (initial velocity of GDP exchange on Rap1A) of Epac2(B); type: biochemical
T1 construct: Human Epac2(B) (amino acids 283-1011) lacks the first 283 amino acids of Epac2; made in house; host or cells: Escherichia coli Rosetta 2(DE3)
T1 sequence (Q8WZA2 283-1011): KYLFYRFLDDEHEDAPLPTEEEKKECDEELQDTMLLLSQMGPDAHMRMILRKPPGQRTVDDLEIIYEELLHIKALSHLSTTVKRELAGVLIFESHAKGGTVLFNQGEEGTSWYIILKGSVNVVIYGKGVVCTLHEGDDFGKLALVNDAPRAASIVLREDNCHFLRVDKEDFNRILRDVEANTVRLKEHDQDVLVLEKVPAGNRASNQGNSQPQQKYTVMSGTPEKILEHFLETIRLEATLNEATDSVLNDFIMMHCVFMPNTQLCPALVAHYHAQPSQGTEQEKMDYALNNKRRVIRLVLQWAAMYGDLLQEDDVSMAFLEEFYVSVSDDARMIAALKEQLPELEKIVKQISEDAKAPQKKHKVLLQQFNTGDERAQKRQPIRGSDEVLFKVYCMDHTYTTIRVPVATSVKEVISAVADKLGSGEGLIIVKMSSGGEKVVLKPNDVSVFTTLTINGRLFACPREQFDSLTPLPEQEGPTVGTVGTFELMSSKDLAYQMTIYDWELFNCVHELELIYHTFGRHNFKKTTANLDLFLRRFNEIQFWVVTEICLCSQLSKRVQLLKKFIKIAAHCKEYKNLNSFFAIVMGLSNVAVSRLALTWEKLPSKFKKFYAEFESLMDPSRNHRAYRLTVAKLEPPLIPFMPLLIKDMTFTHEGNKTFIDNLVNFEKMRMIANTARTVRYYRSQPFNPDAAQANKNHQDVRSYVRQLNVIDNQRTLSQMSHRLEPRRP
Source text: Human Epac2(AB) (amino acids 43-1011) carries both the CNB-A and the CNB-B domains. Human Epac2(B) (amino acids 283-1011) lacks the first 283 amino acids of Epac2. It is therefore deleted of its CNB-A and DEP domains, but retains the CNB-B domain and the full catalytic region. Epac2(AB) was obtained by HindIII/NotI restriction and Epac2(B) was obtained by Ssp1/Not1 restriction of a human Epac2A cDNA (a gift from Ann M Graybiel, Department of Brain and Cognitive Sciences, MIT, Cambridge). Both cDNA fragments were inserted into pET41a (Novagen), expressed in Escherichia coli Rosetta 2(DE3) (Novagen), and the GST-tagged fusion proteins were purified by nickel-nitrilotriacetic acid beads (Qiagen), as described in D. Courilleau, et al., Identification of a tetrahydroquinoline analog as a pharmacological inhibitor of the cAMP-binding protein Epac, J. Biol. Chem. 287 (2012) 44192-44202).
(§1) In vitro GDP exchange catalyzed by Epac was measured using purified recombinant Epac isoforms and Rap1A loaded with Bodipy-GDP, as described in D. Courilleau, et al (above mentioned). The GEF activity of Epac proteins was initiated by injection of the agonist. Stock solutions of CE3F4 and its analogs (12 mM in 100% DMSO) were kept at −20° C. and were diluted in assay buffer (0.67% final DMSO concentration) just before use for GDP exchange assays. The release of Bodipy-GDP was measured in real time as the decay of fluorescence. A single exponential was fit to the time-course data using the Graphpad Prism program. The initial velocity (Vi) of GDP exchange on Rap1 was calculated as described in D. Courilleau et al.).
(§2) Data are expressed as mean±S.D. Differences in quantitative variables were examined by unpaired one- or two-tailed Student's t test. EC50 and IC50 values were computed according to a four-parameters dose-response model and compared on the basis of the extra sum-of square F test, using Graphpad Prism. Two-tailed Wilcoxon matched-pair signed rank tests were performed using GraphPad Prism.

Epac1 = molecular target: T2, Epac1 (Homo sapiens, UniProt O95398); test: In vitro GEF activity (initial velocity of GDP exchange on Rap1A) of Epac1; type: biochemical
T2 construct: Recombinant human Epac1 (residues 149-881), deleted of its Dishevelled, Egl-10, and Pleckstrin (DEP) domain; made in house
T2 sequence (O95398 149-881 isoform O95398-3): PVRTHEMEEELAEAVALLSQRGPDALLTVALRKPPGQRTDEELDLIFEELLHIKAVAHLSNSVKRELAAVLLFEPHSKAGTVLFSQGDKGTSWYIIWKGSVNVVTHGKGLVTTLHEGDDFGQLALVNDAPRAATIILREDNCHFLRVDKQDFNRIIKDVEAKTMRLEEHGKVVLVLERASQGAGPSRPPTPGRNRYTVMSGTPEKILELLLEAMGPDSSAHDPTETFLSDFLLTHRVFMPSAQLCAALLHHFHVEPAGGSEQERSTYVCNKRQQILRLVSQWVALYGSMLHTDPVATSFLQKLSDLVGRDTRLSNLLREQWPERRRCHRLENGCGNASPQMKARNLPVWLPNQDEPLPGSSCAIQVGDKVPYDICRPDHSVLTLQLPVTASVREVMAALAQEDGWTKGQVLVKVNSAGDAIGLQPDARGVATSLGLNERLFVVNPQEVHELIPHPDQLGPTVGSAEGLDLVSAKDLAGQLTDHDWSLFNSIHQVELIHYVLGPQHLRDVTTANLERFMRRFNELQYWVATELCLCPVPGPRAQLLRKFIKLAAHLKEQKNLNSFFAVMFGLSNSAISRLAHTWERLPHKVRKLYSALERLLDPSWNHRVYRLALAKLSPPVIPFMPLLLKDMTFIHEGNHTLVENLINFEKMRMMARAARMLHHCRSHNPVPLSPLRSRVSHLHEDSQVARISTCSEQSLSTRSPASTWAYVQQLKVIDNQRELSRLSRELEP
Method: Protein NCBI Reference Sequences for human Epac1 and Epac2 are NP_006096 and NP_008954, respectively. Recombinant human Epac1 (residues 149-881), deleted of its Dishevelled, Egl-10, and Pleckstrin (DEP) domain, and human Rap1A were produced with GST as a fusion tag (D. Courilleau et al., Identification of a tetrahydroquinoline analog as a pharmacological inhibitor of the cAMP-binding protein Epac, J. Biol. Chem. 287 (2012) 44192-44202).
as §1, §2

[1] = 50 μM racemic CE3F4, agonist 50 μM 007 or 300 μM cAMP, FIG. 6A
[2] = compound 30 μM, 300 μM cAMP, FIG. 6C

Inhibitory effect on GEF activity of Epac2(B), compared with Epac2(AB) (Epac2(B); [1]): no significant difference
pIC50 (Epac2(B); Epac2(B) activated by 300 μM cAMP): 4.18
Antagonism of cAMP-activated Epac2(B) GEF activity (Epac2(B); [2]): stronger antagonist
Inhibition of GEF activity of Epac1 compared with Epac2(AB) or Epac2(B) (Epac1; [1]): much more inhibited
pEC50 (Epac1; Epac1 GEF activity toward Rap1, Epac1 activated by 20 μM 007, mean of n=4 to 9 independent determinations): 4.97
pIC50 (Epac1; Epac1 activated by 300 μM cAMP): 4.96
Antagonism of cAMP-activated Epac1 GEF activity (Epac1; [2]): stronger antagonist
SMILES: CC1CCc2c(cc(Br)c(F)c2Br)N1C=O (racemic) [CE3F4]
